Results: patent EP1184030A1, “Antibacterial composition comprising trimethylnorbornanylcyclohexanol derivatives” (Givaudan SA, priority 2000, dated 2002)
One block for each compound: values may come before it.

Experiments:
[1] = tested on: Staphylococcus epidermidis Ax25; experiment: MIC microtiter plate test, axilla bacteria; type: cell-based; conditions: for Bacteriostatic activity (concentration needed for at least 80% reduction in growth): S. epidermidis, 24 hours; for Minimal inhibitory concentration (MIC): Ax 25, growth inhibition by at least 80%, 24 h at 36° C
From the text: (§1) The different bacterial strains had been isolated from the human axilla by current microbiological practice. They were taxonomically identified by cell morphology, gram-reaction and biochemical tests included in the Api coryne test kit (BioMerieux, France). Strain Staphylococcus epidermidis Ax25 was identified by fatty acid methyl ester analysis (FAME; German type strain collection DSMZ, Germany). The strains were maintained on Tryptic soy broth plates, this standard medium being amended with 5 g per Litre of Tween 80 and 1 g of Soybean lecithin. Plates were incubated at 36° C for a period 48 hours. The bacteria were then swabbed from the plates and suspended in 4 ml of Müller-Hinton broth amended with 100 mg of Tween80 per Litre (MH-Tween) and incubated again at 36° C for 16 hours. Following incubation the bacterial suspensions were diluted in MH-Tween to obtain a final cell density of 10^6 colony forming units per ml. For each fragrance material four microtiter plates were used in the example, each microtiter plate having 8 rows, A-H, and 12 columns, 1-12. To each column a diluted suspension of a different test organism was distributed, 100 µl per well. 1% stock solutions of the fragrance materials were then prepared in MH-Tween broth. The fragrance material was dispersed by ultrasonication into the aqueous medium to obtain a homogenous emulsion. 100 µl per well of this emulsion was then added to the first row of the microtiter plates already containing the target organisms. Serial dilution series were then prepared starting at row A and continuing until row G, each time removing 100 µl from a well and transferring it to the next well. In this way fragrance concentrations of 0.5%, 0.25%, 0.125%, 0.0625%, 0.03125%, 0.0156% and 0.0078% were tested for their antibacterial efficacy. The reference compound Triclosan was tested at 16 fold lower concentrations. The plates were covered with plastic films and incubated for 24 h at 36° C with shaking at 250 rpm. The turbidity developing in the microtiter plates was then examined after 24 h to determine microbial growth. The minimal concentration of fragrance inhibiting the growth of an organism by at least 80% was determined as the minimal inhibitory concentration (MIC).
(§2) Ax 25 was identified as Staphylococcus epidermidis by FAME analysis. Identification with the Api Coryne test kit yielded the following species assignments for the remainder of the strains: Ax 26 Corynebacterium sp.; Ax 3 Corynebacterium bovis; Ax 7 Corynebacterium group G; Ax 10 Corynebacterium jeikeium; Ax 11 Corynebacterium jeikeium; Ax 12 Corynebacterium jeikeium; Ax 15 Corynebacterium jeikeium; Ax 20 Corynebacterium striatum/amycolatum; Ax 19 Corynebacterium jeikeium. The strains were isolated from the axilla of 8 human volunteers. Based on biochemical tests and colony morphology all strains were distinct from each other, even the several strains all belonging to Corynebacterium jeikeium.

[2] = tested on: Ax 15 Corynebacterium jeikeium; experiment: MIC microtiter plate test, axilla bacteria; type: cell-based; conditions: for Bacteriostatic activity (concentration needed for at least 80% reduction in growth): Corynebact. Ax15, 24 hours; for Minimal inhibitory concentration (MIC): Ax15, growth inhibition by at least 80%, 24 h at 36° C
From the text: as §1, §2

[3] = tested on: Ax 7 Corynebacterium group G; experiment: MIC microtiter plate test, axilla bacteria; type: cell-based; conditions: for Bacteriostatic activity (concentration needed for at least 80% reduction in growth): Corynebact. Ax7, 24 hours; for Minimal inhibitory concentration (MIC): Ax7, growth inhibition by at least 80%, 24 h at 36° C
From the text: as §1, §2

Vapour pressure = type: physicochemical
From the text: Odoriferous substances are by definition volatile compounds which evaporate from the skin and therefore loose their deodorising effect. Furthermore small water-soluble fragrance compounds can get dissolved in sweat and are thus rapidly diluted under conditions of high sweat secretion which further reduces the duration of the deodorising effect. Therefore a low water solubility indicated by a high LogP value and a low volatility indicated by low vapour pressure are desired for odoriferous substances which are used for their antibacterial activity.

[4] = tested on: Ax 20 Corynebacterium striatum/amycolatum; experiment: MIC microtiter plate test, axilla bacteria; type: cell-based; conditions: Ax20; growth inhibition by at least 80%, 24 h at 36° C
From the text: as §1, §2

[5] = tested on: Ax 11 Corynebacterium jeikeium; experiment: MIC microtiter plate test, axilla bacteria; type: cell-based; conditions: Ax11; growth inhibition by at least 80%, 24 h at 36° C
From the text: as §1, §2

[6] = tested on: Ax 3 Corynebacterium bovis; experiment: MIC microtiter plate test, axilla bacteria; type: cell-based; conditions: Ax3; growth inhibition by at least 80%, 24 h at 36° C
From the text: as §1, §2

[7] = tested on: Ax 10 Corynebacterium jeikeium; experiment: MIC microtiter plate test, axilla bacteria; type: cell-based; conditions: Ax10; growth inhibition by at least 80%, 24 h at 36° C
From the text: as §1, §2

[8] = tested on: Ax 12 Corynebacterium jeikeium; experiment: MIC microtiter plate test, axilla bacteria; type: cell-based; conditions: Ax12; growth inhibition by at least 80%, 24 h at 36° C
From the text: as §1, §2

Compound: COC1CC(C2CC3CC2C(C)C3(C)C)CCC1O (single isomer, unassigned; peak b) [Peak B]
Bacteriostatic activity (concentration needed for at least 80% reduction in growth) ([1]; Table 7): 0.0023 percent (w/v) | Bacteriostatic activity (concentration needed for at least 80% reduction in growth) ([1]; Table 8): 0.0023 percent (w/v) | Bacteriostatic activity (concentration needed for at least 80% reduction in growth) ([2]; Table 7): 0.0028 percent (w/v) | Bacteriostatic activity (concentration needed for at least 80% reduction in growth) ([2]; Table 8): 0.0028 percent (w/v) | Bacteriostatic activity (concentration needed for at least 80% reduction in growth) ([3]; Table 7): 0.0028 percent (w/v) | Bacteriostatic activity (concentration needed for at least 80% reduction in growth) ([3]; Table 8): 0.0028 percent (w/v)

Compound: CCC(=CCC1CC=C(C)C1(C)C)CO (centres unmarked) [Radjanol]
Minimal inhibitory concentration (MIC) [1]: 0.1250 % weight/ volume | Minimal inhibitory concentration (MIC) [2]: 0.125. % weight/ volume | Minimal inhibitory concentration (MIC) [3]: 0.0625 % weight/ volume

Compound: CC1C2CC(CC2C2CCC(O)CC2)C1(C)C (centres unmarked) [4-(5,5,6-trimethylbicyclo[2.2.1]hept-2-yl)-cyclohexanol]
vapour pressure (Vapour pressure): about 2.2 µg/L

Compound: CC1C2CC(CC2C2CCCC(O)C2)C1(C)C (centres unmarked) [3-(5,5,6-trimethylbicyclo[2.2.1]hept-2-yl)-cyclohexanol]
vapour pressure (Vapour pressure): about 2.2 µg/L

Compound: CC1C2CC(CC2C2CCCCC2O)C1(C)C (centres unmarked) [2-(5,5,6-trimethylbicyclo[2.2.1]hept-2-yl)-cyclohexanol]
vapour pressure (Vapour pressure): about 2.2 µg/L

Compound: COC1CC(C2CC3CC2C(C)C3(C)C)CCC1O (single isomer, unassigned; peak a) [Peak A]
Bacteriostatic activity (concentration needed for at least 80% reduction in growth) ([1]; Table 7): 0.0040 percent (w/v) | Bacteriostatic activity (concentration needed for at least 80% reduction in growth) ([1]; Table 8): 0.0040 percent (w/v) | Bacteriostatic activity (concentration needed for at least 80% reduction in growth) ([2]; Table 7): 0.0048 percent (w/v) | Bacteriostatic activity (concentration needed for at least 80% reduction in growth) ([2]; Table 8): 0.0048 percent (w/v) | Bacteriostatic activity (concentration needed for at least 80% reduction in growth) ([3]; Table 7): 0.0048 percent (w/v) | Bacteriostatic activity (concentration needed for at least 80% reduction in growth) ([3]; Table 8): 0.0048 percent (w/v)

Next, values leading:

vapour pressure (Vapour pressure): 109 µg/L
Compound: C=CCc1ccc(O)c(OC)c1 [Eugenol]

Minimal inhibitory concentration (MIC) [1]: 0.1250 % weight/ volume | Minimal inhibitory concentration (MIC) [4]: 0.1250 % weight/ volume | Minimal inhibitory concentration (MIC) [5]: 0.2500 % weight/ volume | Minimal inhibitory concentration (MIC) [6]: 0.1250 % weight/ volume | Minimal inhibitory concentration (MIC) [7]: 0.2500 % weight/ volume | Minimal inhibitory concentration (MIC) [2]: 0.2500 % weight/ volume | Minimal inhibitory concentration (MIC) [3]: 0.1250 % weight/ volume | Minimal inhibitory concentration (MIC) [8]: 0.2500 % weight/ volume
Compound: CC1=CCC(/C=C\C(C)C(C)O)C1(C)C (centres unmarked) [Ebanol]

Minimal inhibitory concentration (MIC) [1]: 0.1250 % weight/ volume | Minimal inhibitory concentration (MIC) [4]: 0.1250 % weight/ volume | Minimal inhibitory concentration (MIC) [5]: 0.1250 % weight/ volume | Minimal inhibitory concentration (MIC) [6]: 0.1250 % weight/ volume | Minimal inhibitory concentration (MIC) [7]: 0.1250 % weight/ volume | Minimal inhibitory concentration (MIC) [2]: 0.2500 % weight/ volume | Minimal inhibitory concentration (MIC) [3]: 0.1250 % weight/ volume | Minimal inhibitory concentration (MIC) [8]: 0.1250 % weight/ volume
Compound: CC1=CCC(CCC(C)C(C)O)C1(C)C (centres unmarked) [Sandalore]
